Measured values as given in ChEMBL document CHEMBL1126778, “Adenosine A1 antagonists. 3. Structure-activity relationships on amelioration against scopolamine- or N6-((R)-phenylisopropyl)adenosine-induced cognitive disturbance” (J Med Chem, 1993).

Columns and labels:
Mus musculus [1] = test: Retention time in (R)-PIA) induced avoidance test (performed in mice) for antagonistic activity after peroral administration of 5 mg/kg; format: functional, organism-based; set-up: dose 5 mg/kg
Rattus norvegicus [2] = test: Acquisition time in Scopolamine induced avoidance test (performed in rat) for antagonistic activity after peroral administration of 0.02 mg/kg (n=13); format: functional; conditions: route oral
Mus musculus [3] = test: Acquisition time in (R)-PIA) induced avoidance test (performed in mice) for antagonistic activity after peroral administration of 0.31 mg/kg (n=15); format: functional; conditions: route oral
Mus musculus [4] = test: Acquisition time in (R)-PIA) induced avoidance test (performed in mice) for antagonistic activity after peroral administration of 0.08 mg/kg (n=15); format: functional; conditions: route oral
Rattus norvegicus [5] = test: Retention time in Scopolamine induced avoidance test (performed in rat) for antagonistic activity after peroral administration of 0.08 mg/kg (n=13) (P<0.01); format: functional, organism-based; set-up: dose 0.08 mg/kg
Rattus norvegicus [6] = test: Acquisition time in Scopolamine induced avoidance test (performed in rat) for antagonistic activity after peroral administration of 0.31 mg/kg (n=13); format: functional; conditions: route oral
Mus musculus [7] = test: Tested for locomotor activity after oral administration of 10 mg/kg for 120 min; format: functional
Mus musculus [8] = test: Tested for locomotor activity after oral administration of 40 mg/kg for 120 min; format: functional
Mus musculus [9] = test: Retention time in (R)-PIA) induced avoidance test (performed in mice) for antagonistic activity after peroral administration of 1.25 mg/kg (n=15) (P<0.01); format: functional, organism-based; set-up: dose 1.25 mg/kg
Rattus norvegicus [10] = test: Acquisition time in Scopolamine induced avoidance test (performed in rat) for antagonistic activity after peroral administration of 5 mg/kg; format: functional; conditions: route oral
Rattus norvegicus [11] = test: Retention time in Scopolamine induced avoidance test (performed in rat) for antagonistic activity after peroral administration of 5 mg/kg; format: functional, organism-based; set-up: dose 5 mg/kg
Rattus norvegicus [12] = test: Retention time in Scopolamine induced avoidance test (performed in rat) for antagonistic activity after peroral administration of 0.02 mg/kg (n=13); format: functional, organism-based; set-up: dose 0.02 mg/kg
Mus musculus [13] = test: Acquisition time in (R)-PIA) induced avoidance test (performed in mice) for antagonistic activity after peroral administration of 5 mg/kg; format: functional; conditions: route oral
Mus musculus [14] = test: Retention time in (R)-PIA) induced avoidance test (performed in mice) for antagonistic activity after peroral administration of 0.31 mg/kg (n=15) (P<0.005); format: functional, organism-based; set-up: dose 0.31 mg/kg
Rattus norvegicus [15] = test: Retention time in Scopolamine induced avoidance test (performed in rat) for antagonistic activity after peroral administration of 0.31 mg/kg (n=13) (P<0.005); format: functional, organism-based; set-up: dose 0.31 mg/kg
Rattus norvegicus [16] = test: Acquisition time in Scopolamine induced avoidance test (performed in rat) for antagonistic activity after peroral administration of 1.25 mg/kg; format: functional; conditions: route oral
Rattus norvegicus [17] = test: Acquisition time in Scopolamine induced avoidance test (performed in rat) for antagonistic activity after peroral administration of 0.08 mg/kg (n=13); format: functional; conditions: route oral
Mus musculus [18] = test: Retention time in (R)-PIA) induced avoidance test (performed in mice) for antagonistic activity after peroral administration of 0.08 mg/kg (n=15) (P<0.01); format: functional, organism-based; set-up: dose 0.08 mg/kg
Mus musculus [19] = test: Acquisition time in (R)-PIA) induced avoidance test (performed in mice) for antagonistic activity after peroral administration of 1.25 mg/kg (n=15); format: functional; conditions: route oral
Mus musculus [20] = test: Tested for locomotor activity after oral administration of 6.25 mg/kg for 120 min; format: functional
Rattus norvegicus [21] = test: Retention time in Scopolamine induced avoidance test (performed in rat) for antagonistic activity after p.o. administration of 0.08 mg/kg; format: functional, organism-based; set-up: dose 0.08 mg/kg
Mus musculus [22] = test: Retention time in (R)-PIA) induced avoidance test (performed in mice) for antagonistic activity after p.o. administration of 1.25 mg/kg; format: functional, organism-based; set-up: dose 1.25 mg/kg
Mus musculus [23] = test: Tested for locomotor activity after oral administration of 5 mg/kg for 120 min; format: functional
Mus musculus [24] = test: Acquisition time in (R)-PIA) induced avoidance test (performed in mice) for antagonistic activity after p.o. administration of 1.25 mg/kg; format: functional; conditions: route oral
Rattus norvegicus [25] = test: Acquisition time in Scopolamine induced avoidance test (performed in rat) for antagonistic activity after p.o. administration of 0.08 mg/kg; format: functional; conditions: route oral
Rattus norvegicus [26] = test: Retention time in Scopolamine induced avoidance test (performed in rat) for antagonistic activity after peroral administration of 20 mg/kg (n=10); format: functional, organism-based; set-up: dose 20 mg/kg
Rattus norvegicus [27] = test: Acquisition time in Scopolamine induced avoidance test (performed in rat) for antagonistic activity after p.o. administration of 0.31 mg/kg; format: functional; conditions: route oral
Rattus norvegicus [28] = test: Retention time in Scopolamine induced avoidance test (performed in rat) for antagonistic activity after p.o. administration of 0.31 mg/kg; format: functional, organism-based; set-up: dose 0.31 mg/kg
Mus musculus [29] = test: Acquisition time in (R)-PIA) induced avoidance test (performed in mice) for antagonistic activity after p.o. administration of 0.31 mg/kg; format: functional; conditions: route oral
Mus musculus [30] = test: Retention time in (R)-PIA) induced avoidance test (performed in mice) for antagonistic activity after peroral administration of 0.02 mg/kg
Mus musculus [31] = test: Retention time in (R)-PIA) induced avoidance test (performed in mice) for antagonistic activity after peroral administration of 0.31 mg/kg; format: functional, organism-based; set-up: dose 0.31 mg/kg
Rattus norvegicus [32] = test: Retention time in Scopolamine induced avoidance test (performed in rat) for antagonistic activity after peroral administration of 1.25 mg/kg; format: functional, organism-based; set-up: dose 1.25 mg/kg
Rattus norvegicus [33] = test: Acquisition time in Scopolamine induced avoidance test (performed in rat) for antagonistic activity after peroral administration of 20 mg/kg; format: functional; conditions: route oral
Mus musculus [34] = test: Acquisition time in (R)-PIA) induced avoidance test (performed in mice) for antagonistic activity after peroral administration of 0.08 mg/kg; format: functional; conditions: route oral
Rattus norvegicus [35] = test: Acquisition time in Scopolamine induced avoidance test (performed in rat) for antagonistic activity after p.o. administration of 5 mg/kg; format: functional; conditions: route oral
Mus musculus [36] = test: Retention time in (R)-PIA) induced avoidance test (performed in mice) for antagonistic activity after peroral administration of 0.08 mg/kg; format: functional, organism-based; set-up: dose 0.08 mg/kg
Rattus norvegicus [37] = test: Retention time in Scopolamine induced avoidance test (performed in […]) for antagonistic activity after peroral administration of 5 mg/kg; format: functional, organism-based; set-up: dose 5 mg/kg
Mus musculus [38] = test: Tested for locomotor activity after oral administration of 1.25 mg/kg for 120 min; format: functional
Mus musculus [39] = test: Acquisition time in (R)-PIA) induced avoidance test (performed in mice) for antagonistic activity after peroral administration of 0.02 mg/kg; conditions: route oral
Rattus norvegicus [40] = test: Acquisition time in Scopolamine induced avoidance test (performed in rat) for antagonistic activity after peroral administration of 0.02 mg/kg; format: functional; conditions: route oral
Mus musculus [41] = test: Retention time in (R)-PIA) induced avoidance test (performed in mice) for antagonistic activity after peroral of 0.31 mg/kg; format: functional, organism-based; set-up: dose 0.31 mg/kg
Rattus norvegicus [42] = test: Retention time in Scopolamine induced avoidance test (performed in rat) for antagonistic activity after peroral administration of 20 mg/kg; format: functional, organism-based; set-up: dose 20 mg/kg
Adenosine receptor A1 = target: T1, Adenosine receptor A1 (Cavia porcellus, UniProt P47745); test: Binding affinity against Adenosine A1 receptor from guinea pig forebrain membranes by N6-[3H]- cyclohexyladenosine displacement.
T1 sequence (P47745 whole entry): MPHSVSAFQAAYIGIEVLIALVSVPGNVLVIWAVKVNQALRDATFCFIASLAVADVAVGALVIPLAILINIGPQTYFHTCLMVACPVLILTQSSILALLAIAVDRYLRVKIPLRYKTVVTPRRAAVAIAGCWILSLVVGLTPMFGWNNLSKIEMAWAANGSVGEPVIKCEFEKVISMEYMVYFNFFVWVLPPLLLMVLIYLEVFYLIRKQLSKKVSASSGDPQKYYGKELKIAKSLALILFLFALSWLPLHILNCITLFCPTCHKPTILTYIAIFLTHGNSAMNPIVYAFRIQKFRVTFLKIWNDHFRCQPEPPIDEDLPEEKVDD

Adenosine A2 receptor = Adenosine A2 receptor (Rattus norvegicus, UniProt P29276+P30543); test: Binding affinity against Adenosine A2 receptor from rat striatal membranes with N-[3H] ethyladenosin-5'-uronamide
Rattus norvegicus [43] = test: Retention time in Scopolamine induced avoidance test (performed in rat) for antagonistic activity after peroral administration of 0.02 mg/kg; format: functional, organism-based; set-up: dose 0.02 mg/kg

| SMILES | Retention time (Mus musculus [1]) | Acquisition time (Mus musculus [13]) | Acquisition time (Rattus norvegicus [16]) | Retention time (Rattus norvegicus [21]) | Retention time (Mus musculus [22]) | Acquisition time (Mus musculus [24]) | Acquisition time (Rattus norvegicus [25]) | Acquisition time (Rattus norvegicus [27]) | Retention time (Rattus norvegicus [28]) | Acquisition time (Mus musculus [29]) | Retention time (Rattus norvegicus [32]) | Acquisition time (Rattus norvegicus [33]) | Acquisition time (Mus musculus [34]) | Acquisition time (Rattus norvegicus [35]) | Retention time (Mus musculus [36]) | Retention time (Rattus norvegicus [37]) | also measured |
| --- | --- | --- | --- | --- | --- | --- | --- | --- | --- | --- | --- | --- | --- | --- | --- | --- | --- |
| CCCn1c(=O)c2[nH]c(C3CCCC3)nc2n(CCC)c1=O [1,3-DIPROPYL-8-CYCLOPENTYLXANTHINE [DPCPX]] | 433 s | 18.4 s | 12.4 s | – | – | – | – | – | – | – | – | – | – | – | – | – | Acquisition time (Rattus norvegicus [2]): 19.8 s; Acquisition time (Mus musculus [3]): 19.1 s; Acquisition time (Mus musculus [4]): 19.4 s; Retention time (Rattus norvegicus [5]): 105 s; Acquisition time (Rattus norvegicus [6]): 24.7 s; Locomotor activity (Mus musculus [7]): 4679 Counts; Locomotor activity (Mus musculus [8]): 5257 Counts; Retention time (Mus musculus [9]): 272 s; Acquisition time (Rattus norvegicus [10]): 14.6 s; Retention time (Rattus norvegicus [11]): 68.7 s; Retention time (Rattus norvegicus [12]): 32 s; Retention time (Mus musculus [14]): 456 s; Retention time (Rattus norvegicus [15]): 273 s; Acquisition time (Rattus norvegicus [17]): 21.5 s; Retention time (Mus musculus [18]): 190 s; Acquisition time (Mus musculus [19]): 20.5 s; Locomotor activity (Mus musculus [20]): 3826 Counts |
| CCCN1C(=O)N2CC(CC)N=C2c2[nH]c(C34CC5CC(CC3C5)C4)nc21 (racemic) | 277 s | 24.9 s | 14.1 s | 251 s | 231 s | 21.2 s | 21.3 s | 17.3 s | 221 s | 22.7 s | 40.8 s | 26.6 s | 23.5 s | 22.5 s | 196 s | 66.3 s | Locomotor activity (Mus musculus [23]): 6907 Counts; Retention time (Rattus norvegicus [26]): 21 s; Retention time (Mus musculus [30]): 168 s; Retention time (Mus musculus [31]): 292 s; Locomotor (Mus musculus [38]): 5761 Counts; Acquisition time (Mus musculus [39]): 23 s |
| CCCn1c(=O)c2[nH]c(C3CCCC3)nc2n(CCC)c1=S | 104 s | 26.9 s | 9.9 s | 75.3 s | 52.7 s | 12.3 s | 9.4 s | 8.9 s | 25.8 s | 32.7 s | 56.4 s | 6.7 s | 24.7 s | 8.5 s | 48.1 s | 21.6 s | Acquisition time (Rattus norvegicus [40]): 8.9 s; Retention time (Mus musculus [41]): 121 s; Retention time (Rattus norvegicus [42]): 52.4 s; Ki (Adenosine receptor A1): 6.6 nM; Ki (Adenosine A2 receptor): > 10000 nM; Retention time (Rattus norvegicus [43]): 19 s |
